Source: patent publication US20130184223A1, “METHODS AND COMPOSITIONS RELATED TO MODULATING AUTOPHAGY” (UNIVERSITY OF ROCHESTER, priority 2010, published 2013)
Read-outs that look alike come from different tables or passages of the source.

Experiments:
[1] = tested on: YAMC, mp53, Ras and mp53/Ras transformed cells; assay: Immunoblot of autophagy markers p62 and LC3 after drug treatment; format: cell-based, murine; settings: 10 mM 3-methyladenine (3MA) for 24 hrs
Description: To identify if the p62 degradation and LC3 conversion is specifically due to autophagy YAMC, mp53, Ras, and mp53/Ras cells were treated with 3-methyladenine, a specific pharmacologic inhibitor of autophagosome formation (FIG. 4.3).
YAMC, vector, mp53, Ras, and mp53/Ras cells were cultured for two days at 39 C in RPMI with 10% FBS medium and gentamicin in collagen-I coated 15 cm dishes. […] Protein concentration was quantified using Bradford reagent (BioRad) and a Genesys 1 0UV spectrophotometer (Spectronic Unicam). […] Proteins were detected with primary antibodies at the following dilutions in PBST with 5% milk at 4 C overnight: HA-tagged Plac8 —1:1000 dilution of HA antibody (Roche), —Tubulin—1:1000 of—Tubulin antibody (Santa Cruz), Plac8 —1:500 of Plac8 antibody (PRF&L, Inc.), Lamp2 —1:5000 of Lamp2 antibody (Abcam), Rab7 —1:1000 Rab7 antibody (Sigma), LC3 —1:2000 of LC3B antibody (Sigma), RhoA—1:1000 RhoA antibody (Santa Cruz), Cathepsin D—1:1000 Cathepsin D antibody (Santa Cruz), p62 —1:5000 of p62 antibody (PROGEN), 3× Flag-tagged proteins—1:1000 dilution of 3× Flag antibody and 1:2500 of HRP-conjugated 3× Flag antibody (Sigma), Rab5a—1:1000 dilution of Rab5 antibody (Abcam), phosphop70S6K (Thr389)—1:1000 dilution of phospho-p70S6K (Thr389) antibody (Cell Signaling), p70S6K—1:1000 dilution of p70S6K antibody (Cell Signaling), Atg12—1:250 Atg12 antibody (Sigma). […]

[2] = tested on: lymphoma, colon cancer, lung cancer, and pancreatic cancer cells; settings: prior studies referred to in the text, cited from earlier work
[3] = tested on: mp53/Ras transformed cells and CAPAN-2 cells; assay: Immunocompromised mouse tumorigenicity assay, cells expressing autophagy modulators; format: in vivo; settings: cells expressing the protein or shRNA vs vector control; 5×10^5 cells per injection; 4 weeks mp53/Ras, 5 weeks CAPAN-2
Description: To determine whether cooperative up-regulation of autophagy is required for tumorigenesis Atg12, a gene involved in autophagosome formation, was knocked-down using two independent constructs in mp53/RasV12 and Capan-2 cells. In addition, a genetic rescue experiment was performed by introducing a shRNA resistant form of ATG12 into these cell backgrounds to test for ATG12 specificity of the observed effects. Tumor formation was inhibited by Atg12 KD in both mp53/Ras and CAPAN-2 cell lines and was rescued by expression of the exogenous shRNA resistant Atg12 (FIG. 4.5a, 4.5c).
Cells were cultured on 15 cm dishes for two days without selective antibiotics at 39 C for mp53/Ras cells and at 37 C for HT-29, CAPAN-2, PANC-1, and 5 Panc10.05. Cells were plated at the following densities: mp53/Ras—7.5×10^5, HT-29 —1.5×10^6, CAPAN-2 —4×10^6, PANC—4×10^6, and PANC 10.05—2×10^6. Cells were trypsinized, counted and re-suspended in RPMI medium lacking supplements for mp53/Ras, CAPAN-2, and Panc10.05, and DMEM lacking supplements for HT-29 and PANC-1 at a density of 5×10^5/100 ul for mp53/Ras and CAPAN-2 cells, 1.25×10^5/100 ul for HT-29 cells, 5×10^6/100 ul for PANC-1, 2×10^6/100 ul for Panc10.05. […] Tumor volume was measured every week for 4 weeks for mp53/Ras and HT-29 cells, 5 weeks for CAPAN-2 cells, and 6 weeks for PANC-1.

[4] = tested on: mp53/Ras transformed cells and CAPAN-2 cells; assay: Immunoblot of p62 and LC3 in cells expressing autophagy modulators; format: cell-based; settings: cells expressing the protein vs vector control
Excerpt: Thus, the effects of Plac8 KD on both tumor formation and autophagy can be suppressed by constitutive activation of Rab7.
Moreover, the molecular machinery employed in autophagosomal/lysosomal fusion, such as Rab7, is required for endosomal/lysosomal fusion, which is also required for tumor formation in some cancers.
To determine if the Plac8 KD-induced loss of tumor formation is specifically due to a loss of autophagy completion, Atg12, a gene required for autophagosomal formation, was overexpressed in Plac8 KD cells.
YAMC, vector, mp53, Ras, and mp53/Ras cells were cultured for two days at 39 C in RPMI with 10% FBS medium and gentamicin in collagen-I coated 15 cm dishes. HT-29, CAPAN-2, PANC-1 and Panc 10.05 cells were cultured for two days at 37 C in maintenance media without selective antibiotics on 15 cm dishes. […] Protein concentration was quantified using Bradford reagent (BioRad) and a Genesys 1 0UV spectrophotometer (Spectronic Unicam). […]

[5] = tested on: mp53/Ras transformed cells; assay: Lamp2/GFP-LC3 colocalization (autophagosomal/lysosomal fusion), mp53/Ras cells; format: cell-based, murine; settings: nutrient starved in HBSS 15 minutes
Excerpt: The Plac8 KD dependent accumulation of autophagosomes and autophagosomal biochemical markers can be due to an induction of autophagosome formation (on-rate) or inhibition in autophagosome clearance via autophagosomal/lysosomal fusion (off-rate). […] To explore if Plac8 is required for autophagosomal/lysosmal fusion a GFP-LC3 fusion protein was expressed to label autophagosomes and immunostained for Lamp2, a lysosomal marker. Co-localization of GFP-LC3 and Lamp2 indicates the formation of an autolysosome, or the completion of autophagosomal/lysosomal fusion.
Cells were plated onto collagen-1 coated 22 mm glass coverslips (BD Biosciences) in 6 well plates at 5×10^4 cells per well. […] Cells were analyzed and imaged using a Leica inverted confocal microscope (Lieca).
GFP-LC3 expressing cells were fixed, stained, mounted, and imaged by the methods described in previous section titled Immunofluorescent staining of cells. To quantify GFP-LC3 punctae images were analyzed using the ImageJ plug-in Watershed Segmentation. […] The resulting image was quantified by measuring the mean green and blue signals per image and dividing the blue signal by the total green signal to get the amount of punctae per total GFP-LC3 expressed in the cell. […] To quantify GFP-LC3 colocalization images were analyzed using the ImageJ plug-in Colocalization Finder. […]

Molecule: Cn1cnc(N)c2ncnc1-2 [3-methyladenine]
- p62 and LC3 protein levels [1]: p62 and LC3-I increase
- p62 and LC3 protein levels ([1]; listed as 3MA): Accumulation of p62 and LC3

Molecule: CO/C1=C\C(C)=C\[C@@H](C)[C@@H](O)[C@@H](C)C/C(C)=C/C=C/[C@H](OC)[C@@H]([C@@H](C)[C@@H](O)[C@H](C)[C@@]2(O)C[C@@H](O)[C@H](C)[C@@H](C(C)C)O2)OC1=O [Bafilomycin A1]
- tumor formation / tumor growth [2]: inhibits tumor growth
- tumor formation / tumor growth ([2]; listed as bafilomycin A1): tumor inhibitory
- tumor formation / tumor growth ([2]; listed as baflomycin A1): effective at inhibiting tumor formation

Molecule: Rab7 DA: 3× Flag-tagged Rab7 Q67L dominant active mutant, activates autophagosomal/lysosomal fusion
- tumor formation in nude mice [3]: inhibits tumor formation

Molecule: Rab7 DN: 3× Flag-tagged Rab7 T22N dominant negative mutant, inhibits autophagosomal/lysosomal fusion
- tumor formation in nude mice [3]: inhibition of tumor formation
- p62 and LC3 protein levels [4]: accumulation of p62 and LC3
- inhibition of GFP-LC3/Lamp2 colocalization [5]: 74%
